From patent US7910624B1, “Compositions for the treatment of blood disorders” (The Trustees of Boston University, priority 1995, dated 2011)

Legend:
[1] = system: Human erythroleukemia cells; test: Fetal globin mRNA in erythroleukemia cells by primer extension; format: cell-based; settings: 1.0 mM; 4 days
Experimental: Compounds were tested for increased expression of the human globin genes in human erythroid cells. In addition, as the cell line being tested is a tumor cell line, the assay determines if differentiation, a growth inhibitory effect on cancer cells, is induced by the compounds tested. Human erythroleukemia cells were cultured in RPMI media with 10% fetal calf serum alone or with treatment with various compounds for 4 days. Globin mRNA was quantitated by primer extension analysis. Fetal globin mRNA was compared to the amount of fetal globin mRNA produced in untreated cells during the same culture period. The quantitation was expressed as a percent of alpha globin mRNA which was constant. Results are expressed proportional to α-globin mRNA (Table 3).

[2] = system: human erythroid cell line K562; test: Cell viability / growth of K562 by Calcein-AM fluorescence; format: cell-based; settings: 0.5 mM; over 3 days
Experimental: (§1) Such activities might limit their utility for treatment of anemias such as occur in thalassemia, but alternatively would be useful for anticancer effects. To determine cell viability, human erythroid cells were cultured in the presence and absence of these compounds for 4 days and the amount of DNA fragmentation which occurred was measured.
(§2) Cell viability analyses were performed using fluorescent staining to detect living cells. Cells were in log phase of growth in 6-well dishes when used in proliferation assays. For enumeration of living cells, wells were washed once with medium to remove nonadherent or dead cells. Remaining live cells were labeled with Calcein-AM for 20 minutes at 37° C. and washed once. Fluorescence intensity of adherent live cells was read on a CytoFluor 2300 Fluorescence Plate Scanner (Millipore; Bedford, Mass.) at excitation and emission wavelengths of 485 and 530 nm, respectively. The fluorescence intensity of a well was proportional to the number of living cells in the well. Background fluorescence was measured separately for each plate and subtracted from all readings. Each experiment was performed in triplicate or quadruplicate. The standard deviation (SD) of repetitive readings was less than 30% of the mean.
At higher concentrations, still easily achievable in vivo, arginine butyrate (0.5 mM) and dihydrocinnamic acid (greater than 0.5 mM) inhibited growth of this tumor cell line by approximately 50%. Therefore, these compounds are also useful as anti-tumor agents.

[3] = system: erythroid progenitor cells cultured from human cord blood; test: Fetal globin expression in human cell cultures (3H-leucine labelled globin chains, densitometry); format: cell-based
Experimental: Compositions were tested for activity in inducing fetal globin expression and protein production in erythroid progenitor cells cultured from human cord blood and analyzed as described by S. P. Perrine et al. (Blood 74: 454-60, 1989). Briefly, mononuclear cells were cultured in IMDM with 30% fetal calf serum and 2 units erythropoietin per ml to induce erythroid differentiation. Colonies were harvested on day 12-13, incubated with radio-labelled (^3H) leucine, and further incubated in leucine-free media, still in the presence of compounds, overnight. Globin composition in the erythroid cells was analyzed by laser densitometry of electrophoretically separated globin chains stained with Coomassie blue, and by autoradiography. Treated cells were incubated for 12-13 days (Table 2, Experiments A and B) or overnight (Table 2, Experiment C) in the presence of the indicated compounds and compared to untreated control cells cultured from the same human subject.

K562 cells = test: Dose response, total and viable cells by trypan blue exclusion (FIG. 3); format: cell-based, human; settings: up to 2.0 mM, day 4
Experimental: FIG. 3 A FIG. 3E Cell viability as determined by the comparative numbers of total and viable K562 cells in the presence of increasing concentrations of (A) phenoxyacetic acid, (B) dihydrocinnamic acid, (C) butyric acid ethyl ester, (D) arginine butyrate, and (E) isobutyramide.
Dose response curves at dosages of up to 2.0 mM were also determined for phenoxyacetic acid (PAA; FIG. 3A), dihydrocinnamic acid (DHC; FIG. 3B), butyric acid ethyl ester (BAEE; FIG. 3C), arginine butyrate (AB; FIG. 3D) and isobutyramide (IBT; FIG. 3E). Cells were counted on day 4 of treatment and viable cells identified by trypan blue exclusion.

human erythroid cells = test: DNA fragmentation by flow cytometry (propidium iodide); format: cell-based; settings: for effect in DNA fragmentation assays: summary statement
Experimental: as §1
Flow cytometric determination of DNA profiles and DNA fragmentation were determined. Cytometric analysis was performed with a FACScan (Becton Dickenson Instruments; Columbia, Md.). The data analysis and display were performed using the Cell-Fit software program. Approximately 0.5×10^6 cells were washed twice with PBS and resuspended in 1 ml of 1% sodium citrate, 0.1% Triton X-100 and […] of propidium iodide/ml. Resulting permeabilized cells were kept in the dark at 4° C. overnight before DNA profile or DNA fragmentation analysis (Table 4).

anemic juvenile baboons = test: In vivo reticulocyte proliferation and globin expression in phlebotomized anemic baboons; parameters: species or system baboon; settings: for fetal reticulocytes on treatment: 4 days, baseline 4%
Experimental: Experiments were performed to determine if administration of the chemical compositions could induce fetal globin gene expression in an in vivo model similar to humans (S. P. Perrin et al., Brit. J. Haematol. 88:555-61, 1994). Briefly, chemicals were prepared as sterile pharmaceutical solutions in pH adjusted sterile water. A variety of chemical compositions were administered sequentially to some baboons. After administration of one compound, a wash-out period with no compound administration was maintained until reticulocytes returned to base line prior to administration of the next compound. This was done, at least partly, to compare the magnitude of response which occurred within the same individual animal to different compounds.
Briefly, juvenile female baboons (2 years old) were catheterized with arterial and venous catheters and phlebotomized gradually every day to maintain a moderate anemia of 7.0 to 7.5 grams hemoglobin/dl. Fetal reticulocytes, the newly produced red blood cells containing fetal globin, were assayed using a monoclonal antibody against fetal globin (HbF) as described by G. Dover et al. (Blood 67:735-38, 1986). Briefly, blood was stained with two antibodies, one specific for reticulocytes and another against fetal globin protein. The amount of antibody bound cells was determined by FACS analysis. Globin chain synthesis was assayed as described by J. B. Clegg et al. (J. Mol. Biol. 19:91-108, 1966). Briefly, reticulocytes were radio-labeled with ^3H-leucine which was incorporated in equal proportions into actively synthesized globin chains. After incubation in leucine-free media, cells were washed, and globin proteins were separated and purified by column chromatography. Radioactivity incorporated into each peak is compared and the ratios of gamma to gamma plus beta globin calculated. Each animal served as its own control with baseline monitoring assays performed for 4-6 weeks before any drug was administered. Phlebotomy was continued daily, so that peripheral HbF levels in the animals were not considered to be accurate over the short treatment time-frames and were not monitored. Safety monitoring was performed by frequent physical examinations, quantitation of food eaten, activity and frequent chemistry and hematology monitoring. Complete blood counts were assayed before, during and after treatment. Results presented were not adjusted to account for the daily phlebotomy.

[4] = system: erythroid cells (peripheral blood cells); test: Erythroid cell viability by Calcein-AM fluorescent staining (FIG. 2); format: cell-based; settings: 0.5 mM
Experimental: as §2, with “Compositions were tested for the ability to directly stimulate erythroid cell growth. Cell growth stimulation is a useful property for an agent to be used to treat anemias and distinguishes such agents from the cytotoxic drugs currently being tested for treatment of hemoglobinopathies. Cell viability” for “Cell viability”, “labeled with 2 μM 2′,7′-bis-(carboxyethyl)-5-(and 6)-carboxy-fluorescein acetoxy-methyl ester (Calcein-AM) (Molecular Probes; Eugene, Oreg.) for 20” for “labeled with Calcein-AM for 20”, “intensity of live cells” for “intensity of adherent live cells”, “the mean. Results are depicted in FIG. 2.” for “the mean.”

[5] = system: patient with thalassemia intermedia; test: Isobutyramide treatment of a patient with thalassemia, blood counts and hemoglobin; format: in vivo, human; settings: 50 mg/kg 3 days/week
Experimental: This patient received isobutyramide at 50 mg/kg for 3 days/week over the course of the study.

[6] = system: Human mammary carcinoma cells (MCF-7); test: Human mammary carcinoma cell viability by FACS; format: cell-based; settings: 1.0 mM; 4 days
Experimental: Human mammary carcinoma cells (MCF-7) were cultured alone (controls) and with arginine butyrate or isobutyramide for 4 days. Viability was assayed by FACS after incubation with a fluorescent dye taken up by viable cells (FIG. 6). Growth was decreased by 50% with isobutyramide at 1.0 mM, about 60% with arginine butyrate at 0.5 mM, and greater than 90% with arginine butyrate at 1.0 mM.

[7] = system: system A transport in K562 cells and nucleated erythroblasts from fetal liver; test: System A (neutral amino acid) transport, 3H-MAIB uptake; format: cell-based, human; settings: 1 hour incubation; FIG. 12
Experimental: Inhibition of nutrient uptake is undesirable for treatment of anemias. Methyl aminoisobutyric acid (MAIB) labeled with tritium (^3H) is normally taken up by system A amino acid transport. Cold (unlabeled) compounds were added to cultures containing ^3H-MAIB and incubated for 1 hour. Cells were harvested and the amount of ^3H taken up by cells was quantitated by scintillation counting.

[8] = system: erythroblast culture from peripheral blood of patients with sickle cell anemia; test: Induction of fetal globin in erythroblasts by steel factor; format: cell-based, human
Experimental: Peripheral blood was obtained from patients with sickle cell anemia. Mononuclear cells were isolated on Ficoll-Hypaque gradients. One culture was treated with 100 ng/ml steel factor for 13 days and compared with an untreated control. […] A second culture was incubated overnight with an identical dose of steel factor Plus ^3H-leucine. Amounts of labeled globin proteins synthesized in untreated (FIG. 5A) and steel factor treated (FIG. 5B) cells were determined by autoradiography and quantitated (scanned) by laser densitometry. […] The increase observed included both G-γ, and A-γ globin proteins.

[9] = 1.0 mM to 2.0 mM, untreated cells 26%
[10] = 2.0 mM, 4 days, controls 26%, 22%
[11] = 25 and 100 μg/kg subcutaneously

Compound: CCCC(=O)OCC [BAEE, butyric acid ethyl ester]
- induction of fetal globin mRNA in human cells [1]: significantly increased
- growth of K562 [2]: either did not inhibit, or slightly enhanced growth
- Gamma Increase ([3]; Exp. A, 0.1 mM, 12-13 days, above untreated cells): 13.0%
- Gamma Increase ([3]; Exp. B, 0.2 mM, 12-13 days): 8.5%
- Gamma Increase ([3]; Exp. C, 0.1 mM, overnight): 12.5%
- proliferation (dose response, FIG. 3) (K562 cells): did not significantly inhibit proliferation
- Degraded DNA (human erythroid cells; [9]): 13.8%
- Degraded DNA (human erythroid cells; [10]): 13.8%
- effect in DNA fragmentation assays (human erythroid cells): reduce DNA fragmentation
- increase of fetal reticulocytes above basal levels (anemic juvenile baboons; intravenous 3 days, 500 to 1,000 mg/kg per day): over 1,100%
- increase of fetal reticulocytes (anemic juvenile baboons; intravenous 3 days, 500 to 1,000 mg/kg per day (FIG. 11)): 11.3 fold
- erythroid cell growth and proliferation compared to untreated controls (FIG. 2) [4]: either had no effect or stimulated erythroid cell growth and proliferation

Compound: CC(C)C(N)=O [IBT, isobutyramide]
- fetal globin (HbF) ([5]; four month study period): lack of increased fetal globin
- rise of hematocrit (Hct) ([5]; four month study period): 5.8%
- rise of hemoglobin (Hgb) ([5]; four month study period): 1.6 g/dL
- rise of reticulocytes (Retics) ([5]; four month study period): about 50%
- rise of total red blood cells (RBC) ([5]; four month study period): ~1e+06 cells/µL
- Hemoglobin-A1 and hemoglobin-A2 levels ([5]; throughout the study): approximately constant
- Retics ([5]; Day 8): 2.5 ×10^6 cells
- HbF ([5]; Day 22): 0.4
- Retics ([5]; Day 22): 2.0 ×10^6 cells
- Hgb-A2 ([5]; Day 29): 7.0
- Retics ([5]; Day 29): 2.0 ×10^6 cells
- HbF ([5]; Day 36): 0.4
- Retics ([5]; Day 43): 2.0 ×10^6 cells
- RBC ([5]; Day 96, 50 mg/kg): 7.3e+06 cells/µL
- decrease of growth of MCF-7 [6]: 50%
- Degraded DNA (human erythroid cells; [9]): 44%
- Degraded DNA (human erythroid cells; [10]): 34%
- effect in DNA fragmentation assays (human erythroid cells): decrease cell viability
- system A transport of amino acids (3H-MAIB uptake) [7]: inhibited the neutral amino acid transport mechanism
- erythroid cell growth and proliferation compared to untreated controls (FIG. 2) [4]: either had no effect or stimulated erythroid cell growth and proliferation

Compound: steel factor: hematopoietic factor, also referred to as kit ligand, mast cell growth factor and stem cell factor
- rise in numbers of newly-formed blood cells producing fetal globin (anemic juvenile baboons; [11]): 300-500%
- rise of fetal globin chain protein (anemic juvenile baboons; [11]): 3 fold
- total increase of gamma globin expression in the bone marrow (anemic juvenile baboons; [11]): 9 fold
- fetal globin chain protein after treatment (anemic juvenile baboons; 25 and 100 μg/kg subcutaneously, undetectable before treatment): about 3 % of total non-alpha globin
- fetal reticulocytes on treatment (anemic juvenile baboons; first dose regimen: 25 μg/kg subcutaneously once daily): 15%
- fetal reticulocytes on treatment (anemic juvenile baboons; second dose regimen: 100 μg/kg subcutaneously): 12%
- gamma globin expression after treatment ([8]; 100 ng/ml overnight plus 3H-leucine, increased from 17.6%): 43.3%
- gamma globin expression in BFU-e cells after treatment ([8]; 100 ng/ml, 13 days, increased from 14%): 23.3%
- Gamma globin expression, mean increase ([8]; 100 ng/ml, 13 days, versus untreated control): 16.1%
